According to US11458094B2, “Compositions and methods for treating pulmonary edema or lung inflammation” (priority 2018, dated 2022):

Legend:
HO-1 = test: Western blot of HO-1 in RLE-6TN cells under hyperoxia; type: cell-based, rat; details: T3 10^−6M
Method: (§1) FIG. 10. HO-1 Upregulation is required for T3-increased RLE-6TN cell survival in hyperoxia. […] The cells were then collected for Western Blot analysis. (B) The cells were incubated in 21% O2 and 5% CO2 for 72 hours in the present of HO-1 inhibitor Tin Protoporphyrin IX(10^-6M) tinT3 (10^−6M). […] Cell viability is assessed with trypan blue. The number of viable cells under specific conditions is presented as a percentage of the cell number related to hyperoxia alone. Data are mean±s.d. of three independent experiments with *=P<0.05; **=P<0.01.
(§2) The cells were lysed in lysis buffer containing 20 mM Tris·HCl (pH 7.5), 150 mM NaCl, 1 mM EDTA, 1 mM EGTA, 1% (vol/vol) Triton X-100 with protease inhibitors (1 mM PMSF, 2 μg/ml pepstatin, and 10 μg/ml each of aprotinin and leupeptin), and phosphatase inhibitors (2.5 mM sodium pyrophosphate, 1 mM β-glycerophosphate, and 1 mM Na3VO4). The lysate was drawn 10 times through a 25-gauge needle on ice for further lysis and then was centrifuged at 13,000 rpm for 15 minutes at 4° C. The supernatant was collected, and the protein concentrations were determined by use of the BCA protein assay kit (Sigma-Aldrich, St. Louis, Mo.). Immediately after this step, equal amounts of protein were subjected to Western blotting analysis.

[1] = system: myeloperoxidase (MPO) activity in lung tissue; test: Hyperoxia-induced lung injury in rats: lung myeloperoxidase (MPO) assay; type: in vivo, Sprague Dawley rats; details: 60 hours hyperoxia, ip T3
Description: (§3) All experimental protocols for animal treatments were approved by the University of Minnesota Institutional Animal Care and Use Committee. […] The room-air control rats were kept in the University animal housing facility. At the end of hyperoxic exposure, rats were sacrificed by intraperitoneal pentobarbital injection, and the lungs were harvested; the right lobes were allocated for histopathology, measurement of lung tissue myeloperoxidase (MPO) activity and wet-to-dry weight ratio. The left lobes underwent bronchoalveolar lavage (BAL) to determine BAL protein concentrations and differential cell counts.
To quantify the neutrophil activity in the lung, MPO activity was assayed as previously described (Abraham et al., J Immunol 165:2950-2954, 2000). Lung tissues without prior lavage were frozen in liquid nitrogen, weighed, and stored at −86° C. The lungs were homogenized for 30 seconds in 1.5 ml 20 mM potassium phosphate, pH 7.4, and centrifuged at 4° C. for 30 minutes at 40,000×g. The pellet was resuspended in 1.5 ml 50 mM potassium phosphate, pH 6.0, containing 0.5% hexadecyltrimethylammonium bromide, sonicated for 90 seconds, incubated at 60° C. for two hours, and centrifuged at 14,000 rpm for 30 minutes at 4° C. The supernatant was assayed for peroxidase activity corrected to lung weight. MPO was expressed as activity per gram of lung tissue.

[2] = system: rat lung mucosa and airspaces; test: Preliminary studies: intratracheal instillation of liothyronine sodium without pH adjustment; details: rats, pH of >10.0 as supplied commercially
Method: (§4) Therefore, the liothyronine sodium and the vehicle were adjusted to neutral pH (6.0-8.0) with sterile 1.0 N HCl (Sigma-Aldrich, St. Louis, Mo.) added aseptically in a biosafety cabinet prior to intratracheal instillation into animals. Using aseptic technique, vials of liothyronine sodium were opened and the entire contents were transferred into sterile 1.5 mL Eppendorf tubes. 80-90 μL of 1.0 N HCl was added to the tube and gently vortexed, and the pH was measured using pH test strips (pH 4.5 to 10.0, Ricca Chemical Co., Arlington, Tex.). Additional HCl was titrated in gradually, as needed, until the pH was in the desired range. […] This solution was stored at 4° C. and used for up to 26 hours after pH adjustment procedure. […] The vehicle was also adjusted to neutral pH (6.0-8.0) with 1.0 N HCl as described above. Using aseptic technique the vehicle was filter sterilized and aliquoted into 21 sterile disposable tubes (5 mL each) and stored at 4° C., and a new tube was opened for each day of use. Normal Saline (0.9% Sodium Chloride Injection USP, B. Braun Medical, Inc., Bethlehem, Pa.), was stored at room temperature. A new package was opened for each day of use.

[3] = Toxicity phase: intratracheal instillation once daily for five consecutive days (GLP safety study); type: in vivo, Sprague-Dawley rats
Method: Safety studies are described in Example 3, below. In a safety study conducted in compliance with Good Laboratory Practices (GLPs), 0.3 mL (300 μl) was administered to rats weighing 250-350 grams via intratracheal instillation daily for five consecutive days. […] The calculated dose based on lung weight was about 1.57 μg/g wet lung weight.
This study was conducted using both male and female Sprague-Dawley rats (Envigo, Huntingdon, United Kingdom). Evaluation of the safety of the tracheal route of instillation for liothyronine sodium injection in human clinical trials can be accomplished in this species at appropriate dose levels. Furthermore, responses to thyroid hormone in rats are similar to responses in humans, and the choice of the rat model is based in large part on pharmacologic data from studies of thyroid hormone and associated receptors and physiological responses in rat lung. The University of Minnesota is accredited by the Association for the Assessment and Accreditation of Laboratory Animal Care, International (AAALAC) and registered with the United States Department of Agriculture to conduct research in laboratory animals. Animal studies conformed to NIH guidelines (Guide for the Care and Use of Laboratory Animals. NIH publication No. 86-23. Revised 1985). The protocol was reviewed and approved, as applicable, by the Institutional Animal Care and Use Committee (IACUC) at the University of Minnesota for compliance with regulations prior to study initiation or implementation of amended activities.
Sixty animals (plus two spare animals/sex/group) were anesthetized and dosed via intratracheal instillation of test or control materials for five consecutive days. On the day after the last dose a terminal blood collection was performed for clinical pathology, after which animals were euthanized and a gross examination of all organs was performed by a board certified veterinary pathologist. Select tissues were collected for histopathology. […] Terminal blood collection was performed at two designated time points per animal up to 24 hours after administration for toxicokinetic evaluation. TK animals were euthanized without further evaluation after the final blood collection. All animals were acclimated for a minimum of seven days prior to the dosing procedure. Animals underwent baseline observations and examinations prior to the initiation of the study, and clinical observations and body weight monitoring were performed throughout the in-life portion of the study. All animals received the same dose volume (0.3 mL) of either test or control materials. This maximum feasible dose (MFD) is constrained by the maximum volume that can be safely and reproducibly (over five days) instilled into lungs of rats weighing 250 g to 350 g, which was determined in preliminary toxicology studies to be 0.3 mL. Actual doses delivered are reported as both μg/kg body weight and μg/gm wet lung weight. The toxicity phase animals were 72-135 days of age at the time of initial dosing. Males weighed between 256.52 g and 307.50 g with a mean±standard deviation of 286.74±11.77 g, and females weighed between 250.46 g and 299.01 g with a mean±standard deviation of 260.64±10.34 g. The TK phase animals were 68-144 days of age at the time of initial dosing. Males weighed between 261.23 g and 316.19 g; females weighed between 250.06 g and 280.32 g.
Test and control materials were drawn into dosing syringes using aseptic technique. Using a 18G needle, 0.5 mL of air was drawn into a 1 cc syringe followed by 0.3 mL (300 μL) of the solutions. Animals were anesthetized with a combination of ketamine, 40 mg/kg to 200 mg/kg, and xylazine, 1 mg/kg to 7 mg/kg intraperitoneally (IP), to effect. The dose was adjusted daily, as needed, based on individual animal response and recovery. Depth of anesthesia was evaluated by toe pinch, and eye lubricant was applied to the eyes. […]

Akt = Akt phosphorylation (Ser473) in RLE-6TN cells under hyperoxia; type: cell-based, rat; details: hyperoxia 24 hours, T3 added for 20 minutes, vs room air control and hyperoxia alone
Method: as §2

[4] = system: hyperoxia-induced lung injury; test: Hyperoxia-induced lung injury in rats: lung histology and MPO immunostaining; type: in vivo, Sprague Dawley rats
Method: FIG. 17. […] Immunostaining was performed with primary: anti-MPO antibody. Black dots represent MPO-positive cells.
FIG. 18. […] (A) Control: room air; (B) Hyperoxia; (C) Hyperoxia+T3.
as §3
Lung tissue was removed and inflation fixed at 20 cm water pressure in 4% paraformaldehyde, paraffin embedded, cut as 5 micron sections and mounted onto poly-L-lysine slides. Sections were deparaffinized in xylene, rehydrated through a graded alcohol series in methanol, and placed in a 98° C. water bath for 30 minutes in citrate buffer (pH 6.0) for antigen retrieval. After quenching with 0.3% hydrogen peroxide in PBS, sections were incubated in normal serum for 30 minutes and for 15 minutes each with Avidin/Biotin Blocking Kit (Vector Laboratories, Inc., Burlingame, Calif.). […]

Nrf2 = test: Western blot of Nrf2 (total cellular and nuclear) in RLE-6TN cells under hyperoxia; type: cell-based, rat; details: 24 hours hyperoxia, T3 10^−6 M
Description: FIG. 9. […] The cells were then collected for Western Blotting analysis. (A) Cellular total protein of Nrf2. (B) Nuclear Nrf2.
FIG. 12. T3-induced increase in Nrf2 and HO-1 protein via PI3K in hyperoxia. (A) Western Blot and densitometry data for total Nrf2. (B) Western Blot and densitometry data for cytoplasmic Nrf2. (C) Western Blot and densitometry data for nuclear Nrf2.
Nuclei were extracted with NE-PER nuclear and cytoplasmic extraction reagents kit (Thermo Fisher Scientific, Inc., Waltham, Mass.) following the manufacturer's instruction.
as §2

[5] = single oral dose of 50 micrograms; cited from earlier work
[6] = system: hyperoxia-induced lung injury; test: Hyperoxia-induced lung injury in rats: bronchoalveolar lavage protein and cell number; type: in vivo, Sprague Dawley rats; details: ip T3
Description: as §3
Bronchoalveolar lavage (BAL) of the left lung was performed using a modification of a method previously described (Pace et al., Exp Lung Res 35:380-398, 2009). Briefly, 4 mls of ice-chilled 1× PBS (pH 7.4) were instilled into the left lung, withdrawn, and re-instilled two subsequent times prior to analysis of the lavage fluid. The retrieved BAL fluid was centrifuged at 1500 rpm for 10 minutes to remove cells and debris. The cell pellet was resuspended in 1 ml of 1× PBS (pH 7.4) and total cell number was counted using a hemocytometer. BAL cytospin preparations were stained using the Hema3 stain kit (Thermo Fisher Scientific, Inc., Waltham, Mass.) to identify the nucleated cells. The protein concentration was determined on the supernatants of BAL fluid using a standard BCA assay (Sigma-Aldrich, St. Louis, Mo.).

[7] = system: rat lung mucosa and airspaces; details: in vivo
Method: as §4

[8] = Preliminary dose-finding studies, 3.0 μg neutral pH T3 intravenous vs intratracheal; type: in vivo, rats
RLE-6TN cells = test: RLE-6TN cell survival and recovery under hyperoxia, viable cells by trypan blue exclusion; type: cell-based, rat
Method: FIG. 7. […] The cells were cultured in DMEM/F12 with 10% FBS in 21% O2 and 5% CO2 overnight. […] The viable cells are counted immediately after 72-hour hyperoxia exposure. Cell viability is assessed with trypan blue. The amount of viable cells under specific conditions is presented as a percentage of the cell number from hyperoxia alone. Data are mean±s.d. of four independent experiments with *=P<0.05; **=P<0.01.
FIG. 8. […] In both (A) and (B), the number of viable cells under specific conditions is presented as a percentage of the cell number related to hyperoxia alone in the same experiment. Data are mean±s.d. of four independent experiments with *=P<0.05; **=P<0.01.
as §1
FIG. 11. PI3K inhibitor wortmannin blocked T3-induced cell survival in hyperoxia. […] Cell viability is assessed with trypan blue. The number of viable cells under specific conditions is presented as a percentage of the cell number related to hyperoxia alone. Data are mean±s.d. of four independent experiments with *=P<0.05; **=P<0.01.
At the end of the hyperoxia exposure period, the viable cells were counted by trypan blue dye exclusion.

SMILES: N[C@@H](Cc1cc(I)c(Oc2ccc(O)c(I)c2)c(I)c1)C(=O)O [T3, triiodothyronine]
- total cellular protein of HO-1 (HO-1): significantly enhanced
- hyperoxia-induced lung MPO activity [1]: significantly reduced
- tolerance of intratracheal instillation [2]: do not tolerate
- body weight at terminal euthanasia vs pre-dose ([3]; T3 females, toxicity phase): weighed slightly less than their pre-dose weight
- animals that died after dose administration ([3]; T3 test group, toxicity phase, judged not test article related): two
- clinical observations ([3]; during the course of the study): No adverse T3 related clinical observations
- regain of body weight ([3]; female rats, toxicity phase, vs males or control groups): did not regain body weight at the same rate
- hematology parameters ([3]; male rats): no statistical or clinically significant changes
- treatment-related macroscopic or microscopic findings in end organs ([3]; toxicity phase rats): no macroscopic or microscopic findings
- organ weight of the lungs ([3]; toxicity phase rats, five days intratracheal): no differences
- phosphorylation of Akt at Ser473 (Akt): augmented
- MPO-positive cells in the lungs vs hyperoxia without T3 ([4]; 95% oxygen 60 hours, T3-injected): fewer MPO-positive cells
- lung morphology (histopathology) ([4]; 60 hours hyperoxia, systemic T3 supplementation): virtually normal lung morphology
- nuclear Nrf-2 protein expression (Nrf2): significantly increased
- total cellular Nrf-2 protein expression (Nrf2): significantly increased
- mean half-life [5]: 22.5 h
- hyperoxic increase in BALF protein concentration ([6]; 48 hour hyperoxia): attenuated significantly
- BALF cell numbers vs hyperoxia alone ([6]; 48 hours hyperoxia): significantly reduced
- hyperoxic increase in BALF protein concentration ([6]; 60 hour hyperoxia): attenuated significantly
- BALF cell numbers vs hyperoxia alone ([6]; 60 hours hyperoxia): significantly reduced
- toxicity to rat lung mucosa and airspaces [7]: extremely toxic
- acute effects on physiologic parameters (respiratory rate, O2 saturation, heart rate) ([8]; five days of intratracheal delivery of 3.0 μg neutral pH T3): no acute effects
- acute effects on physiologic parameters (respiratory rate, O2 saturation, heart rate) ([8]; single intravenous delivery of 3.0 μg neutral pH T3): no acute effects

SMILES: C=Cc1c2[n-]c(c1C)/C=c1\[n-]/c(c(C)c1C=C)=C\c1[n-]c(c(CCC(=O)O)c1C)C=c1[n-]/c(c(C)c1CCC(=O)O)=C\2.[Sn+4] [Tin protoporphyrin, Tin Protoporphyrin IX]
- AT2 cell number in room air (RLE-6TN cells; 21% O2 72 hours, 10^-6M): no effect
- effect on T3-caused increase in cell survival in hyperoxia (RLE-6TN cells; 90% O2 72 hours, with T3 10^−6M, inhibitor 10^-6M): blocked

SMILES: NC(Cc1ccc(Oc2cc(I)c(O)c(I)c2)c(I)c1)C(=O)O (centres unmarked) [rT3]
- cell survival under hyperoxia (RLE-6TN cells; 90% oxygen 72 hours, 10^−6M): no role in cell survival
